Test results as given in patent US20260028326A1, “COMPOUND BASED ON ISOINDOLINE-SUBSTITUTED GLUTARIMIDE BACKBONE AND USE THEREOF” (GLUETACS THERAPEUTICS (SHANGHAI) CO., LTD., priority 2022, published 2026).
pIC50: −log10 of the molar value.

molecular target: human Cereblon WT GST-tagged protein (Homo sapiens (Human), UniProt Q96SW2); experiment: CRBN-binding affinity, HTRF (CEREBLON BINDING kit)
Summary of the method: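 HTRF competition readout: compounds compete with a thalidomide-Re conjugate for GST-tagged wild-type human CRBN detected via Eu-labelled anti-GST antibody. Inhibition rate derived relative to protein-free blank wells.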

Chain of human Cereblon WT GST-tagged protein (Q96SW2 whole entry): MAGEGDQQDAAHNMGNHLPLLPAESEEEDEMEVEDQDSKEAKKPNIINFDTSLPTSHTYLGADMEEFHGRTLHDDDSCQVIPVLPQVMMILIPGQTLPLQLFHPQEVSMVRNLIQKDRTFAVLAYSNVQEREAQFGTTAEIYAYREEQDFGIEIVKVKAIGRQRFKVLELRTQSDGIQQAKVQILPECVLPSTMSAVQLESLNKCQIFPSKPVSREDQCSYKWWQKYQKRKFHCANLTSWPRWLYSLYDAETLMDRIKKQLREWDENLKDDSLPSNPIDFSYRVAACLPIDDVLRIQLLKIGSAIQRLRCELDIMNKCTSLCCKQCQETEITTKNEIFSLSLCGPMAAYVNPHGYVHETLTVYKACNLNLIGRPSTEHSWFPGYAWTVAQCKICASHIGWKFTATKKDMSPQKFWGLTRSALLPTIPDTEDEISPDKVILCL

pIC50	SMILES
6.00	CC1(C)CCC(C(=O)N2CCN(Cc3cc(F)c4c(c3)CN(C3CCC(=O)NC3=O)C4=O)CC2)=C(c2ccc(Cl)cc2)C1 (stereo not drawn) [GT-05527, 3-(5-((4-(4′-chloro-5,5-dimethyl-3,4,5,6-tetrahydro-[1,1′-biphenyl]-2-carbonyl)piperazin-1-yl)methyl)-7-fluoro-1-oxoisoindolin-2-yl)piperidine-2,6-dione]
5.71	CC1(C)CCC(C(=O)N2CCN(Cc3cccc4c3CN(C3CCC(=O)NC3=O)C4=O)CC2)=C(c2ccc(Cl)cc2)C1 (stereo not drawn) [GT-05528, 3-(4-((4-(4′-chloro-5,5-dimethyl-3,4,5,6-tetrahydro-[1,1′-biphenyl]-2-carbonyl)piperazin-1-yl)methyl)-1-oxoisoindolin-2-yl)piperidine-2,6-dione]
5.92	CC1(C)CCC(CN2C3CC2CN(Cc2cc4c(cc2F)C(=O)N(C2CCC(=O)NC2=O)C4)C3)=C(c2ccc(Cl)cc2)C1 (stereo not drawn) [GT-05530, 3-(5-((6-((4′-chloro-5,5-dimethyl-3,4,5,6-tetrahydro-[1,1′-biphenyl]-2-yl)methyl)-3,6-diazabicyclo[3.1.1]heptan-3-yl)methyl)-6-fluoro-1-oxoisoindolin-2-yl)piperidine-2,6-dione]
5.75	CC1(C)CCC(CN2C3CCC2CN(Cc2cc4c(cc2F)C(=O)N(C2CCC(=O)NC2=O)C4)C3)=C(c2ccc(Cl)cc2)C1 (stereo not drawn) [GT-05535, 3-(5-((8-((4′-chloro-5,5-dimethyl-3,4,5,6-tetrahydro-[1,1′-biphenyl]-2-yl)methyl)-3,8-diazabicyclo[3.2.1]octan-3-yl)methyl)-6-fluoro-1-oxoisoindolin-2-yl)piperidine-2,6-dione]
6.22	CC1(C)CCC(CN2CC3CC2CN3C(=O)c2ccc3c(c2)CN(C2CCC(=O)NC2=O)C3=O)=C(c2ccc(Cl)cc2)C1 (stereo not drawn) [GT-05541, 3-(5-(5-((4′-chloro-5,5-dimethyl-3,4,5,6-tetrahydro-[1,1′-biphenyl]-2-yl)methyl)-2,5-diazabicyclo[2.2.1]heptane-2-carbonyl)-1-oxoisoindolin-2-yl)piperidine-2,6-dione]
6.35	O=C1CCC(N2Cc3cc(CN4CC5CCC4CN5C(=O)c4ccccc4-c4ccc(Cl)cc4)ccc3C2=O)C(=O)N1 (stereo not drawn) [GT-05543, 3-(5-((5-(4′-chloro-[1,1′-biphenyl]-2-carbonyl)-2,5-diazabicyclo[2.2.2]octan-2-yl)methyl)-1-oxoisoindolin-2-yl)piperidine-2,6-dione]
5.98	O=C1CCC(N2Cc3c(CN4CCN(Cc5ccccc5-c5ccc(F)cc5)CC4)cccc3C2=O)C(=O)N1 (stereo not drawn) [GT-05605, 3-(4-((4-((4′-fluoro-[1,1′-biphenyl]-2-yl)methyl)piperazin-1-yl)methyl)-1-oxoisoindolin-2-yl)piperidine-2,6-dione]
5.93	O=C1CCC(N2Cc3ccc(CN4CCN(Cc5ccccc5-c5ccc(F)cc5)CC4)cc3C2=O)C(=O)N1 (stereo not drawn) [GT-05606, 3-(6-((4-((4′-fluoro-[1,1′-biphenyl]-2-yl)methyl)piperazin-1-yl)methyl)-1-oxoisoindolin-2-yl)piperidine-2,6-dione]
6.20	O=C1CCC(N2Cc3cc(CN4CCCN(Cc5ccccc5-c5ccc(Cl)cc5)CC4)ccc3C2=O)C(=O)N1 (stereo not drawn) [GT-05611, 3-(5-((4-((4′-chloro-[1,1′-biphenyl]-2-yl)methyl)-1,4-diazepan-1-yl)methyl)-1-oxoisoindolin-2-yl)piperidine-2,6-dione]
5.85	CC1(C)CCC(CN2CCN(C(=O)c3ccc4c(c3)CN(C3CCC(=O)NC3=O)C4=O)CC2)=C(c2ccc(F)cc2)C1 (stereo not drawn) [GT-05614, 3-(5-(4-((4′-fluoro-5,5-dimethyl-3,4,5,6-tetrahydro-[1,1′-biphenyl]-2-yl)methyl)piperazine-1-carbonyl)-1-oxoisoindolin-2-yl)piperidine-2,6-dione]
6.05	O=C1CCC(N2Cc3cc(C(=O)N4CCCN(Cc5ccccc5-c5ccc(Cl)cc5)CC4)ccc3C2=O)C(=O)N1 (stereo not drawn) [GT-05616, 3-(5-(4-((4′-chloro-[1,1′-biphenyl]-2-yl)methyl)-1,4-diazepane-1-carbonyl)-1-oxoisoindolin-2-yl)piperidine-2,6-dione]
6.23	O=C1CCC(N2Cc3cc(CN4CC5CCC4CN5Cc4ccccc4-c4ccc(Cl)cc4)ccc3C2=O)C(=O)N1 (stereo not drawn) [GT-05619, 3-(5-((5-((4′-chloro-[1,1′-biphenyl]-2-yl)methyl)-2,5-diazabicyclo[2.2.2]octan-2-yl)methyl)-1-oxoisoindolin-2-yl)piperidine-2,6-dione]
5.76	O=C1CCC(N2C(=O)c3ccc(C(=O)N4CCN(Cc5cccc(-c6ccc(Cl)cc6)c5)CC4)cc3C2=O)C(=O)N1 (stereo not drawn) [GT-05631, 5-(4-((4′-chloro-[1,1′-biphenyl]-3-yl)methyl)piperazine-1-carbonyl)-2-(2,6-dioxopiperidin-3-yl)isoindoline-1,3-dione]
6.00	O=C1CCC(N2Cc3cc(CN4CCN(C(=O)c5cnc(-c6ccccc6)cn5)CC4)ccc3C2=O)C(=O)N1 (stereo not drawn) [GT-05635, 3-(1-oxo-5-((4-(5-phenylpyrazine-2-carbonyl)piperazin-1-yl)methyl)isoindolin-2-yl)piperidine-2,6-dione]
5.97	O=C1CCC(N2Cc3cc(C(=O)N4CC5(CN(Cc6ccccc6-c6ccc(Cl)cc6)C5)C4)ccc3C2=O)C(=O)N1 (stereo not drawn) [GT-05637, 3-(5-(6-((4′-chloro-[1,1′-biphenyl]-2-yl)methyl)-2,6-diazaspiro[3.3]heptane-2-carbonyl)-1-oxoisoindolin-2-yl)piperidine-2,6-dione]
6.11	O=C1CCC(N2Cc3cc(C(=O)N4CC5CC4CN5Cc4ccccc4-c4ccc(Cl)cc4)ccc3C2=O)C(=O)N1 (stereo not drawn) [GT-05639, 3-(5-(5-((4′-chloro-[1,1′-biphenyl]-2-yl)methyl)-2,5-diazabicyclo[2.2.1]heptane-2-carbonyl)-1-oxoisoindolin-2-yl)piperidine-2,6-dione]
5.83	O=C1CCC(N2Cc3cc(C(=O)N4CC5(CCN(Cc6ccccc6-c6ccc(Cl)cc6)CC5)C4)ccc3C2=O)C(=O)N1 (stereo not drawn) [GT-05641, 3-(5-(7-((4′-chloro-[1,1′-biphenyl]-2-yl)methyl)-2,7-diazaspiro[3.5]nonane-2-carbonyl)-1-oxoisoindolin-2-yl)piperidine-2,6-dione]

SMILES	pIC50
CC1(C)CCC(CN2C3CC2CN(Cc2cc(F)c4c(c2)CN(C2CCC(=O)NC2=O)C4=O)C3)=C(c2ccc(Cl)cc2)C1 (stereo not drawn) [GT-05531, 3-(5-((6-((4′-chloro-5,5-dimethyl-3,4,5,6-tetrahydro-[1,1′-biphenyl]-2-yl)methyl)-3,6-diazabicyclo[3.1.1]heptan-3-yl)methyl)-7-fluoro-1-oxoisoindolin-2-yl)piperidine-2,6-dione]	6.10
CC1(C)CCC(CN2C3CCC2CN(Cc2ccc4c(c2F)CN(C2CCC(=O)NC2=O)C4=O)C3)=C(c2ccc(Cl)cc2)C1 (stereo not drawn) [GT-05534, 3-(5-((8-((4′-chloro-5,5-dimethyl-3,4,5,6-tetrahydro-[1,1′-biphenyl]-2-yl)methyl)-3,8-diazabicyclo[3.2.1]octan-3-yl)methyl)-4-fluoro-1-oxoisoindolin-2-yl)piperidine-2,6-dione]	5.93
CC1(C)CCC(CN2C3CCC2CN(Cc2cc(F)c4c(c2)CN(C2CCC(=O)NC2=O)C4=O)C3)=C(c2ccc(Cl)cc2)C1 (stereo not drawn) [GT-05536, 3-(5-((8-((4′-chloro-5,5-dimethyl-3,4,5,6-tetrahydro-[1,1′-biphenyl]-2-yl)methyl)-3,8-diazabicyclo[3.2.1]octan-3-yl)methyl)-7-fluoro-1-oxoisoindolin-2-yl)piperidine-2,6-dione]	5.98
CC1(C)CCC(C(=O)N2CC3CC(C2)N3C(=O)c2ccc3c(c2)CN(C2CCC(=O)NC2=O)C3=O)=C(c2ccc(Cl)cc2)C1 (stereo not drawn) [GT-05538, 3-(5-(3-(4′-chloro-5,5-dimethyl-3,4,5,6-tetrahydro-[1,1′-biphenyl]-2-carbonyl)-3,6-diazabicyclo[3.1.1]heptane-6-carbonyl)-1-oxoisoindolin-2-yl)piperidine-2,6-dione]	5.99
CC1(C)CCC(C(=O)N2CC3CCC(C2)N3C(=O)c2ccc3c(c2)CN(C2CCC(=O)NC2=O)C3=O)=C(c2ccc(Cl)cc2)C1 (stereo not drawn) [GT-05539, 3-(5-(3-(4′-chloro-5,5-dimethyl-3,4,5,6-tetrahydro-[1,1′-biphenyl]-2-carbonyl)-3,8-diazabicyclo[3.2.1]octane-8-carbonyl)-1-oxoisoindolin-2-yl)piperidine-2,6-dione]	5.89
CC1(C)CCC(C(=O)N2C3CCC2CN(C(=O)c2ccc4c(c2)CN(C2CCC(=O)NC2=O)C4=O)C3)=C(c2ccc(Cl)cc2)C1 (stereo not drawn) [GT-05540, 3-(5-(8-(4′-chloro-5,5-dimethyl-3,4,5,6-tetrahydro-[1,1′-biphenyl]-2-carbonyl)-3,8-diazabicyclo[3.2.1]octane-3-carbonyl)-1-oxoisoindolin-2-yl)piperidine-2,6-dione]	6.02
O=C1CCC(N2Cc3cc(CN4C5CC4CN(Cc4ccccc4-c4ccc(Cl)cc4)C5)c(F)cc3C2=O)C(=O)N1 (stereo not drawn) [GT-05609, 3-(5-((3-((4′-chloro-[1,1′-biphenyl]-2-yl)methyl)-3,6-diazabicyclo[3.1.1]heptan-6-yl)methyl)-6-fluoro-1-oxoisoindolin-2-yl)piperidine-2,6-dione]	6.27
O=C1CCC(N2Cc3cc(CN4C5CC4CN(Cc4ccccc4-c4ccc(Cl)cc4)C5)cc(F)c3C2=O)C(=O)N1 (stereo not drawn) [GT-05610, 3-(5-((3-((4′-chloro-[1,1′-biphenyl]-2-yl)methyl)-3,6-diazabicyclo[3.1.1]heptan-6-yl)methyl)-7-fluoro-1-oxoisoindolin-2-yl)piperidine-2,6-dione]	6.19
O=C1CCC(N2Cc3cc(CN4CC5CCC(C4)N5Cc4ccccc4-c4ccc(Cl)cc4)ccc3C2=O)C(=O)N1 (stereo not drawn) [GT-05618, 3-(5-((8-((4′-chloro-[1,1′-biphenyl]-2-yl)methyl)-3,8-diazabicyclo[3.2.1]octan-3-yl)methyl)-1-oxoisoindolin-2-yl)piperidine-2,6-dione]	6.24
O=C1CCC(N2Cc3cc(C(=O)N4C5CCC4CN(Cc4ccccc4-c4ccc(Cl)cc4)C5)ccc3C2=O)C(=O)N1 (stereo not drawn) [GT-05638, 3-(5-(3-((4′-chloro-[1,1′-biphenyl]-2-yl)methyl)-3,8-diazabicyclo[3.2.1]octane-8-carbonyl)-1-oxoisoindolin-2-yl)piperidine-2,6-dione]	5.92
